# Tests used:
# Staphylococcus aureus [1] = experiment: Antibacterial activity against quinolone-resistant Staphylococcus aureus CCARM 3505 after 18 hrs by broth microdilution method; format: functional; settings: CCARM 3505, 18 h
# Staphylococcus aureus [2] = experiment: Antibacterial activity against methicillin-resistant Staphylococcus aureus CCARM 3167 after 18 hrs by broth microdilution method; format: functional; settings: CCARM 3167, 18 h
# Peptide deformylase = target: T1, Peptide deformylase (Staphylococcus aureus, UniProt P68826); experiment: (§1) Inhibition of Staphylococcus aureus peptide deformylase using N-formylmethionine-alanine-serine as substrate by spectrophotometry
# T1 sequence (P68826 whole entry): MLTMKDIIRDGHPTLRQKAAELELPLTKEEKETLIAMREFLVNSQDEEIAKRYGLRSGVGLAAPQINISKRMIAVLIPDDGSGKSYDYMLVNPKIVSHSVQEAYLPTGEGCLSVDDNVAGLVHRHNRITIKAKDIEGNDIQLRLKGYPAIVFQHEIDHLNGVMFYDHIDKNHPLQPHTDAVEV
# Staphylococcus aureus [3] = experiment: Antibacterial activity against Staphylococcus aureus RN4220 after 18 hrs by broth microdilution method; format: functional; settings: RN4220, 18 h
# [4] = target: T2, Peptide deformylase (Staphylococcus aureus) (UniProt P68826); experiment: as §1
# T2 sequence (whole entry): T1 sequence (P68826 whole entry)
Compound,MIC (Staphylococcus aureus [1]),MIC (Staphylococcus aureus [2]),IC50 (Peptide deformylase),MIC (Staphylococcus aureus [3]),inhibition [4]
CCCCC[C@H](CC(=O)NO)C(=O)N[C@H](C(=O)N1CCC[C@H]1CO)C(C)C [ACTINONIN],4 µg/mL,4 µg/mL,0.02 µM,4 µg/mL,–
COCc1c(O)c(O)c(O)c2c1CO[C@H]2[C@H]1OC(O)c2c(C)c(O)c(O)c(O)c21 (mixture of isomers) [FLAVIMYCIN B],64 µg/mL,64 µg/mL,100 µM,64 µg/mL,Dose-dependent effect
Cc1c(O)c(O)c(O)c2c1CO[C@H]2[C@H]1OC(O)c2c(C)c(O)c(O)c(O)c21 (mixture of isomers) [FLAVIMYCIN A],32 µg/mL,32 µg/mL,35.8 µM,32 µg/mL,Dose-dependent effect

# Reference: ChEMBL document CHEMBL2010710, “Flavimycins A and B, dimeric 1,3-dihydroisobenzofurans with peptide deformylase inhibitory activity from Aspergillus flavipes” (J Nat Prod, 2012)
